Measurements reported in patent US20150371009A1, “DRUG IDENTIFICATION MODELS AND METHODS OF USING THE SAME TO IDENTIFY COMPOUNDS TO TREAT DISEASE” (priority 2014, published 2015).

Experiments:
[1] = test system: MCF7 breast cancer cell line (ER+); test: In vitro cell line proliferation assay (MTS), MCF7; type: cell-based; conditions: 96 hours; for inhibition of cell line proliferation: ER+ MCF7, escalating doses
Description: (§1) In vitro cell line proliferation assays. MCF7 and SK-BR-3 breast cancer cell lines were provided by the American Type Culture Collections (ATCC; Manassas, Va.) and cultured in complete medium (high glucose DMEM supplemented with 10% fetal bovine serum, L-glutamine, and pen/strep antibiotics). Drugs were purchased from Sigma-Aldrich (St. Louis, Mo.). Proliferation assays were performed as previously described with minor modifications. Cells were seeded at 5×10^3 cells per well in a 96 well plate in the morning. […] The plates were incubated at 37° C./5% CO2 for 96 hours. Cell proliferation was analyzed using MTS reagent (Promega; Madison, Wis.) according to manufacturer's protocol.
(§2) Tamoxifen was selected as a currently used breast cancer drug for comparison. […] Cell proliferation was measured using the MTS assay according to manufacturer's protocol.

[2] = test system: SK-BR-3 breast cancer cell line (ER−); test: In vitro cell line proliferation assay (MTS), SKBR3; type: cell-based; conditions: 96 hours; for inhibition of cell line proliferation: ER− SKBR3, escalating doses
Description: as §1, §2

[3] = patients; donepezil doses up to 23 mg/day; cited from earlier work

Compound | inhibition of cell line proliferation [1] | inhibition of cell line proliferation [2] | IC50 ([1]; ER+ MCF7 cells, complete medium, MTS) | IC50 ([2]; ER− SKBR3 cells, complete medium, MTS) | side effects / worst adverse drug reactions [3]
COc1cc2c(cc1OC)C(=O)C(CC1CCN(Cc3ccccc3)CC1)C2 (racemic) [Donepezil, (RS)-2-[(1-benzyl-4-piperidyl)methyl]-5,6-dimethoxy-2,3-dihydroinden-1-one] | dose dependent inhibition | dose dependent inhibition | – | – | –
4-hydroxytamoxifen [Drug 4OHtam] | dose dependent inhibition | dose dependent inhibition | 31.2 ± 4.9 µM | 55.7 ± 4.2 µM | –
CC/C(=C(\c1ccccc1)c1ccc(OCCN(C)C)cc1)c1ccccc1 [Tamoxifen] | – | – | – | – | severe side effects including the development of endometrial cancer
